# In US10022422B2, “Peptidomimetic macrocycles” (priority 2009, dated 2018):
# Where a SMILES comes first, the peptide text is derived from it. Bridges are numbered along the chain shown (N, C = ends). [ ]: non-standard residue; d: D form. S5 = C=CCCC[C@](C)(N)C(=O)O; Nle = CCCC[C@H](N)C(=O)O; Aib = CC(C)(N)C(=O)O
# Assay: Figure 6
# Design: AUC,all / AUC,inf: concentration or dose not given beside the values
# Text: Table printed on a drawing sheet, Figure 6
# First reader's note: The head SP-2 is printed shifted to the left of its column of values.
SMILES,"AUC,all [ng·h/mL]","AUC,inf [ng·h/mL]",Cl [mL/min/kg],"Cmax, obs [ng/mL]",MRT [min],T1/2 [min],Vss [L/kg]
"CCCC[C@H](NC(C)=O)C(=O)N[C@@H](CC(=O)O)C(=O)N[C@H](C(=O)N[C@@H](CC(N)=O)C(=O)N1CCC[C@H]1C(=O)N[C@H](C(=O)N[C@@H](CC(C)C)C(=O)N[C@@H](CC(C)C)C(=O)N[C@@H](Cc1ccccc1)C(=O)N[C@@H](CC(C)C)C(=O)N[C@@H](CCCCN)C(=O)N[C@H](C(=O)N1CCC[C@H]1C(=O)N[C@@H](C)C(=O)N[C@@H](CCC(N)=O)C(N)=O)C(C)C)[C@@H](C)O)C(C)C [SP-1, Ac-NleDVNPTLLFLKVPAQ-NH2]",1606,1616,31.22,7742,7.8,9.6,0.241
"CCCC[C@H](NC(C)=O)C(=O)N[C@@H](CC(=O)O)C(=O)N[C@H](C(=O)N[C@@H](CC(N)=O)C(=O)NC(C)(C)C(=O)N[C@H](C(=O)N[C@@H](CC(C)C)C(=O)N[C@@H](CC(C)C)C(=O)N[C@@H](Cc1ccccc1)C(=O)N[C@@H](CC(C)C)C(=O)N[C@@H](CCCCN)C(=O)N[C@H](C(=O)NC(C)(C)C(=O)N[C@@H](C)C(=O)N[C@@H](CCC(N)=O)C(N)=O)C(C)C)[C@@H](C)O)C(C)C [SP-2, Ac-NleDVNAibTLLFLKVAibAQ-NH2] (Ac-[Nle]DVN[Aib]TLLFLKV[Aib]AQ-NH2)",3360,3385,15,8145,24.6,19.8,0.366
"CCCC[C@H](NC(C)=O)C(=O)N[C@@H](CC(=O)O)C(=O)N[C@H](C(=O)N[C@@H](CC(N)=O)C(=O)NC(C)(C)C(=O)N[C@H](C(=O)N[C@@H](CC(C)C)C(=O)N[C@@H](CC(C)C)C(=O)N[C@@H](Cc1ccccc1)C(=O)N[C@@]1(C)CCCC=CCCC[C@@](C)(C(=O)N[C@@H](CCCNC(=N)N)C(N)=O)NC(=O)[C@H](C)NC(=O)[C@H](C(C)C)NC(=O)[C@H](CCCCN)NC1=O)[C@@H](C)O)C(C)C [SP-6, Ac-NleDVNAibTLLF$KVA$R-NH2] (Ac-[Nle]DVN[Aib]TLLF[S5]KVA[S5]R-NH2; staple 10-14)",10894,10976,4.65,12564,75,77.4,0.348
"CCCC[C@H](NC(C)=O)C(=O)N[C@@H](CC(=O)O)C(=O)N[C@H](C(=O)N[C@@H](CC(N)=O)C(=O)NC(C)(C)C(=O)N[C@H](C(=O)N[C@@H](CC(C)C)C(=O)N[C@@]1(C)CCCC=CCCC[C@@](C)(C(=O)N[C@@H](C)C(=O)N[C@@H](C)C(=O)N[C@@H](CCC(N)=O)C(N)=O)NC(=O)[C@H](CCCCN)NC(=O)[C@H](CC(C)C)NC(=O)[C@H](Cc2ccccc2)NC1=O)[C@@H](C)O)C(C)C [SP-9, Ac-NleDVNAibTL$FLK$AAQ-NH2] (Ac-[Nle]DVN[Aib]TL[S5]FLK[S5]AAQ-NH2; staple 8-12)",8190,11950,5.67,9766,84.6,95.4,0.363
